Values after ≈ are worked out from the molar mass of the structure shown. Like-named read-outs stand apart in the source and are kept apart here.
Tests used:
[1] = system: NCI-H460 human lung cancer cells (large cell lung cancer); assay: CCK-8 in vitro anti-tumor screening, human lung cancer cells (large cell lung cancer); format: cell-based
Procedure: (§1) In vitro screening of the efficacy of dimyricetin-based diselenide on 7 different human tumor cells (HEP3B2.1.7, NCI-H460, CALU-3, SW480, SIHA, PC-3, MGC80-3) was performed. Using the CCK-8 detection method, 10 drug concentrations was designed, and each concentration was arranged in 3 re-holes. […], 24 h, 48 h, and 72 h, was selected according to dynamic microscopy. The positive drug was cisplatin. Cisplatin concentration gradient designed: 0 (i.e., the solvent control group), 1 μM, 5 μM, 10 μM, 20 μM, 40 μM, 60 μM, 80 μM, 100 μM, 135 μM. Dimyricetin-based diselenide drug concentration gradient designed: 0 (i.e., solvent control group), 1 μg/ml, 5 μg/ml, 25 μg/ml, 50 μg/ml, 75 μg/ml, 100 μg/ml, 125 μg/ml, 150 μg/ml, 200 μg/ml.
(§2) Step 1. Cell culture. […]
(§3) Step 3. […] Step 3-4, measuring the absorbance value: a microplate reader was used to measure the 450 nm absorbance value, and the inhibitory rate of the drug on the cells was calculated according to the formula. […]
(§4) Experimental group: the absorbance value of the cells and CCK-8 solution in the experimental group
(§5) Negative control: the absorbance value of control cells and CCK-8 solution
(§6) Blank control: absorbance value of medium and CCK-8 solution […]

[2] = system: Siha human cervical squamous cell carcinoma cells; assay: CCK-8 in vitro anti-tumor screening, human cervical squamous cell carcinoma cells; format: cell-based
Procedure: as §1, §2, §3, §4, §5, §6

[3] = system: HEP3B2.1.7 human liver cancer cells; assay: CCK-8 in vitro anti-tumor screening, human liver cancer cells; format: cell-based; conditions: HEP3B cells
Procedure: as §1, §2, §3, §4, §5, §6

[4] = system: SW480 primary colorectal cancer cells; assay: CCK-8 in vitro anti-tumor screening, primary colorectal cancer cells; format: cell-based, human
Procedure: as §1, §2, §3, §4, §5, §6

[5] = system: PC-3 human prostate cancer cells; assay: CCK-8 in vitro anti-tumor screening, human prostate cancer cells; format: cell-based; conditions: pc-3 cells
Procedure: as §1, §2, §3, §4, §5, §6

[6] = system: MGC80-3(MGC-803) human gastric cancer cells; assay: CCK-8 in vitro anti-tumor screening, human gastric cancer cells; format: cell-based; conditions: 24 h
Procedure: as §1, §2, §3, §4, §5, §6

[7] = system: Calu-3 human lung adenocarcinoma cells (pleural effusion); assay: CCK-8 in vitro anti-tumor screening, human lung adenocarcinoma cells (pleural effusion); format: cell-based; conditions: calu-3 cells, 24 h
Procedure: as §1, §2, §3, §4, §5, §6

2019-nCoV-M^pro protease = 2019-nCoV-M^pro protease (Severe acute respiratory syndrome coronavirus 2, UniProt P0DTD1); assay: M^pro protease activity inhibition, fluorescence resonance energy transfer method; format: biochemical; conditions: 30 nM protease, 20 μM substrate, 10 min preincubation at 30° C.
Excerpt: This example was the detection of M^pro protease activity inhibition of the targeted 2019-nCoV virus.
The mechanism is: after the new coronavirus invades the cell, it will use the host cell to synthesize two ultra-long replicase polypeptides (pp1a and pp1ab) necessary for self-replication. The replicase polypeptide needs to be further cut into multiple proteins (such as RdRp, helicase, etc.), and then assembled into the replication and transcription machinery required for the virus to initiate the replication of its own genetic material. M^pro has at least 11 cleavage sites on the replicase polypeptide. […]
The fluorescence resonance energy transfer method was used to evaluate the inhibitory activity of dimyricetin-based diselenide on 2019-nCoV-M^pro protease.
Specific detection method: the volume of the entire enzymatic reaction system is 120 μL, the final concentration of protease is 30 nM, and the final concentration of substrate is 20 μM. […] The substrate was added and quickly placed in the microplate reader for reading. […] The test time is 10 min, and the fluorescence value is read every 30 seconds. The final result is the first 2 minutes reading to fit the reaction rate, and compared with the control group (DMSO) to calculate the inhibition rate.

## N.N.[Cl][Pt][Cl] [Cisplatin, cisplatin, reference compound]
[1]; 48 h
  IC50: 47.4 µM
[2]; 48 h
  IC50: 65.5 µM
[3]; 48 h
  IC50: 8.83 µM
[4]; 48 h
  IC50: 46.7 µM
[5]; 48 h
  IC50: 45.7 µM
[6]; MGC803 cells
  IC50: 23.2 µM

## O=c1c(O)c(-c2cc(O)c(O)c(O)c2)oc2c([Se][Se]c3c(O)cc(O)c4c(=O)c(O)c(-c5cc(O)c(O)c(O)c5)oc34)c(O)cc(O)c12 [Dimyricetin-based diselenide, 8,8′-diselanediylbis(3,5,7-trihydroxy-2-(3,4,5-trihydroxyphenyl)-4H-1-benzopyran-4-one)]
[1]; Homo sapiens, NCI-H460, 24 h
  IC50: 27.9 µg/mL
[7]
  IC50: 22.9 µg/mL (≈ 29 µM)
2019-nCoV-M^pro protease; read-out: IC50
  IC50: 0.807 ± 0.083 µM
2019-nCoV-M^pro protease; read-out: IC50 (μg/ml) (converted)
  IC50: 0.806 µM
[2]; Homo sapiens, 24 h
  IC50: 19.1 µg/mL
[3]; Homo sapiens, 24 h
  IC50: 25.2 µg/mL
[4]; Homo sapiens, 24 h
  IC50: 12.4 µg/mL
[5]; Homo sapiens, 24 h
  IC50: 7.72 µg/mL
[6]; Homo sapiens, MGC-803, MGC803 cells
  IC50: 9.08 µg/mL

Reference: patent US20220071947A1, “PHARMACEUTICAL APPLICATION OF DIMYRICETIN-BASED DISELENIDE” (Shanghai Spark Pharmaceutical Co., Ltd., priority 2020, published 2022)
